# According to patent EP1101492A1, “NOVEL REMEDIES FOR ALLERGIC DISEASES” (FUJI YAKUHIN KOGYO KABUSHIKI KAISHA, priority 1998, dated 2000):
# Columns and labels:
# allergic peritonitis = experiment: Allergic peritonitis induced with ovalbumin (peritoneal exudate cells); format: in vivo, Balb/c mice; conditions: ovalbumin
# Experimental: Twenty four hours after induction, mice were sacrificed under ether […] and each penitoneal cavity was lavaged twice or thrice with a washout medium (total volume: 5 mL, physiological saline containing 10 units/mL of heparin). Peritoneal exudate cells (PEC) were harvested in a siliconized glass tube. The retrieved washout medium was measured for its yield (mL) and the number of exudate cells therein by using Turk solution and counting on a haemocytometer and a total number of PEC was calculated. An aliquot thereof (an extent of approximately 20,000 cells of PEC) was taken. Specimens for staining were prepared using Cytospin 3 (CHANDON), and PEC was stained with Dif-Quick solution (International Reagents Corporation). After staining, PEC was subjected to fractional counts under a microscope with classification into eosinophils, neutrophils, lymphocytes/macrophages and basophils based on their form and stain nature (more than 500 PEC per specimen were randomly counted). […] After counting, intraperitoneal exudation inhibition rates were calculated by the following formula and expressed as the therapeutic efficacies: Inhibition Rate (%) =[1 -((PEC in Sensitized/Drug-Treated Mouse) - (PEC in Unsensitized/Saline-Treated Mouse))/((PEC in Sensitized/Saline-Treated Mouse) - (PEC in Unsensitized/Saline-Treated Mouse))]× 100 [formula]
# A physiological saline solution containing ovalbumin (0.25 mg/mL) and an aluminum hydroxide gel (4 mg/mL) was administered subcutaneously to male Balb/c mice (7 weeks old, 20 to 23 g, purchased from JAPAN SLC, Inc.) twice at one week interval at a single dose of 0.4 mL for sensitization. On Day 14 after the initial sensitization, an antigen solution for induction (2.5 µg/mL) was administered intraperitoneally to each animal at a dose of 0.4 mL to raise allergic peritonitis. Compound No. 130 (30 mg/kg) or a negative control solvent, physiological saline (10 mL/kg), was administered intraperitoneally to each animal 5 minutes prior to induction, 3 and 6 hours post-induction.
# Similarly to Example 24, the peritoneal cavities were lavaged to retrieve PEC. The drained liquids were measured for their yield and total PEC number therein. In the same manner as in Example 24, PEC was stained and subjected to fractional counting under a microscope based on their form. […] Similarly to Example 24, basophils and neutrophils were excluded from subjects to be examined. In the same manner as in Example 24, intraperitoneal exudation inhibition rates were calculated and expressed as the therapeutic efficacies.
# In the same manner as in Example 25, male Balb/c mice were sensitized with ovalbumin and an aluminum hydroxide gel, and, on Day 14 after the initial sensitization, treated with an antigen solution to raise allergic peritonitis. Compound No. […]
# Similarly to Example 24, the peritoneal cavities were lavaged to retrieve PEC 24 hours after induction. The drained liquids were measured for their yield and total PEC number therein.
# [1] = system: mouse experimental atopic dermatitis models; experiment: Scratching behavior in experimental atopic dermatitis model; format: in vivo, mice; conditions: for % Inhibition (scratching behavior) / Scratching Behavior (Times) (Average± Deviation): 0.1% solution in ethanol, 10 µL per side painted 1 hour pre-elicitation; for % Inhibition (scratching behavior): counts for 15 to 30 and 30 to 45 min post-elicitation, vs solvent control; for Scratching Behavior (Times) (Average± Deviation): counts for the 15 to 30 min and 30 to 45 min post-elicitation durations, 3 animals per group, solvent control 209.0 ± 70.4
# [2] = system: mouse experimental atopic dermatitis models; experiment: Auricle edema in experimental atopic dermatitis model (anti-DNP IgE sensitization, DNFB elicitation); format: in vivo, Balb/c mice; conditions: 60 µg/ear/dose in ethanol painted on auricles twice a day, 1 hour pre-elicitation, 6 hours, 1 to 6 days post-elicitation; for % Inhibition vLPR: 7 or 8 days post-elicitation; for % Inhibition IPR: 1 hour post-elicitation; for % Inhibition LPR: 1 day post-elicitation
# Experimental: Intravenous injection of an anti-2,4-dinitrophenol (DNP) antibody (anti-DNP Ab, monoclonal IgE Ab; its antibody titer was 1 : 512 to 1 : 1024 by a rat heterologous passive cutaneous anaphylaxis reaction using a Wister rat) into a tail vein of female Balb/c mice (7-week old, body weight: 17 to 20 g, purchased from JAPAN SLC, Inc.) at a dose of […] per animal raised passive sensitization. Twenty four hours post-sensitization, 0.1% 2,4-dinitrofluorobenzene (DNFB; Nacalai Tesque, Inc.) in ethanol was painted onto both sides of a pair of mouse auricles at a dose of 10µL per each side for elicitation.
# Fresh unsensitized mice were painted with 0.1% DNFB in ethanol onto their ear in the same manner as aforementioned and served as a control group. Not only immediately prior to elicitation but also 1 hour, 5 hours, daily between Days 1 and 14, and on Day 16 post-elicitation, ear thickness was measured using a dial thickness gauge (Peacock Co.). Each degree of auricle edemas was calculated: Auricular Edema (µm)=(Ear Thickness Post-Elicitation, µm) - (Ear Thickness immediately prior to Elicitation, µm) [formula]
# Balb/c mice were passively sensitized with anti-DNP IgE Ab in the same manner as in Example 1. Twenty four hours later, 0.1% DNFB in ethanol was painted onto both sides of a pair of mouse auricles at a dose of 10 µL per each side for elicitation.
# Immediately prior to elicitation, 1 hour and on Day 1 post-elicitation, auricle thickness was measured in the same manner as in Example 1. Each therapeutic efficacy is recorded as a percent inhibition wherein the "auricle edema (untreated group)" is used as a control. Auricle Edema Inhibition (%) = [ 1 -(Auricle Edema (Treated Group))/(Auricle Edema (Untreated Group))] × 100 (%) [formula]
# Immediately prior to elicitation, and on Day 7 post-elicitation, auricle thickness was similarly measured. Each therapeutic efficacy is recorded as a percent inhibition wherein the auricle edema in the untreated group is used as a control.
# Immediately prior to elicitation, and on Day 7 post-elicitation, auricle thickness was similarly measured. Each therapeutic efficacy is recorded as a percent inhibition wherein the auricle edema (untreated group) is used as a control.
# Immediately prior to elicitation, at 1 and 4 hours and on Days 1, 3 and 7 post-elicitation, auricle thickness was similarly measured. From each auricle edema (µm) based on the auricle thickness immediately prior to elicitation, especially a prophylactically therapeutic efficacy of the test compound was evaluated.
# Immediately prior to elicitation, at 0.5, 1 and 4 hours and on Days 1, 3 and 7 post-elicitation, auricle thickness was similarly measured. Each amount of auricle edemas was calculated (average± standard deviation).
# [3] = system: guinea pig experimental bronchial asthma models; experiment: Experimental bronchial asthma model (ovalbumin inhalation): airway resistance and asthmatic death;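 note: female Std:Hartley guinea pigs sensitized by inhaling nebulized ovalbumin once daily for 8 consecutive days, 8 to 11 animals per group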; conditions: test compounds 15 mg/kg s.c. (Compound No. 114: 30 mg/kg), prednisolone 10 mg/kg orally
# Experimental: Guinea pigs (female, Std:Hartley, 3 weeks old, 200 to 250 g) were individually housed in a plastic chamber (width, 200 mm; depth, 300 mm; height, 167 mm). Aqueous ovalbumin (10 mg/mL) was administered to the guinea pigs once a day for sensitization by 10 min. inhalation with a nebulizer (5B, Nippon Shoji K.K.: flow rate, 6 L/min.) at a dose of 10 mg/mL during 8 cosecutive days. On Day 7 after the final sensitization, the guinea pigs were housed in a plastic chamber and inhaled using a nebulizer with a solution of ovalbumin (10 mg/mL) in physiological saline for 1 min. for elicitation (Matsumoto, T., et al., The Journal of Pharmacology and Experimental Therapeutics, 269: 1236-1244, 1994). The number of animals employed in the experiment was set to the extent there are at least 6 as individuals escaping asthmatic death. A solution of a test compound (Compound No. 130, 15 mg/kg) in water for injection was administered subcutaneously twice, i.e., 24 hours and 2 hours prior to elicitation. Similarly, the solvent alone was also administered to a negative control group. A suspension of prednisolone (10 mg/kg) in 0.5% aqueous methyl cellulose was administered orally twice, i.e., 24 hours and 2 hours prior to elicitation. Similarly, the solvent alone was also administered to another control group.
# The evaluation for efficacies was conducted in terms of airway resistance. For this purpose, an apparatus dedicated to the measurement of airway resistance (K.K. Medical Agent) was employed. Measurement includes setting a guinea pig in a test chamber under a not-anesthetized condition, applying sinusoidal pressure waves of 30 Hz components to a part below the neck of the animal from the back side of the chamber, measuring respiratory waves of 30 Hz components leaking through the mouth (volume of 30 Hz air flow passing through the respiratory tract) in front of the neck, and calculating airway resistance mechanically. Measurement was carried out immediately prior to the first drug treatment (24 hours before elicitation), just prior to elicitation, 10 minutes, 1, 2, 4, 6, and 8 hours post-elicitation.
# It was visually observed by a person carrying out said test in terms, of the appearance of cyanosis or suffocative death (asthmatic death) due to respiratory obstruction.
# Guinea pigs were sensitized with ovalbumin and asthma was induced on Day 7 after final sensitization in the same manner as in Example 20. The number of animals employed in the experiment was set to the extent there are at least 6 as individuals escaping asthmatic death (8 to 11 animals/group). In the same manner as in Example 20, the animals were measured for airway resistance mechanically and each percent change (%) in airway resistance was calculated (each value just prior to elicitation was set as 100%). Each percent amelioration in airway resistance was calculated from the percent changes in airway resistance according to the following formula: Amelioration in Airway Resistance (%) = 1 -[((Percent Change in Airway Resistance after Drug-Administration) - (Value just prior to Challenge (100)))/((Percent Change in Airway Resistance after Solvent-Administration) - (Value just prior to Challenge (100)))]× 100 [formula]
# [4] = 30 mg/kg s.c. 1 hour prior to induction and 3 hours post-induction, lavage 6 hours post-induction
# [5] = 30 mg/kg s.c., lavage 24 hours post-induction
# [6] = 24 and 2 hours prior to elicitation, vs solvent control
Compound,Leukocyte exudate inhibition rate (%) Eosinophils (allergic peritonitis; [4]) [%],Leukocyte exudate inhibition rate (%) Neutrophils (allergic peritonitis; [4]) [%],Leukocyte exudate inhibition rate (%) Total PEC Number (allergic peritonitis; [4]) [%],Leukocyte exudate inhibition rate (%) (Macrophages)/(Lymphocytes) (allergic peritonitis; [5]),Leukocyte exudate inhibition rate (%) Eosinophils (allergic peritonitis; [5]) [%],Leukocyte exudate inhibition rate (%) Total PEC Number (allergic peritonitis; [5]) [%],% Inhibition (scratching behavior) [1] [%],Scratching Behavior (Times) (Average± Deviation) [1],inhibitory efficacy on scratching in the 20 to 40 min post-elicitation duration ([1]; 0.3% Compound No. 125 vs 0.1% tacrolimus painted on auricles),"efficacy on mouse scratching behavior (FIG. 9) ([1]; 0.3% ethanolic solution, 10 µL per side painted on auricles 5 minutes pre-elicitation, observed 2 hours)",% Inhibition vLPR [2] [%],% Inhibition IPR [2] [%],% Inhibition LPR [2] [%],"% Survival ([3]; asthmatic death within several minutes after elicitation, water for injection 54.5, 0.5% methyl cellulose 66.7) [%]","% Amelioration in Airway Resistance, 1 Hour after Elicitation [3, 6] [%]","% Amelioration in Airway Resistance, 6 Hours after Elicitation [3, 6] [%]","% Amelioration in Airway Resistance, Immediately after Elicitation [3, 6] [%]"
"CNC(=O)[C@H](Cc1ccc(N=C(N)N)cc1)NC(=O)C(CC(C)C)[C@H](CCCc1ccccc1)C(=O)NO.Cl (single isomer, unassigned) [Compound No. 125, N -[4-(N-Hydroxyamino)-2(R or S)-isobutyl-3(S)-(3-phenyltrimethylene)succinyl]-L-4'-guanidophenylalanine-N-methylamide 1 hydrochloride]",38.4,41.4,40.9,55.1,38.9,49.6,40.7,124.0 ± 43.6,higher than that of tacrolimus,apparently inhibits mouse scratching behavior,31,56,58,,,,
"CNC(=O)[C@H](Cc1ccc(N=C(N)N)cc1)NC(=O)[C@@H](CC(=O)NO)CC(C)C.O=S(=O)(O)O [Compound No. 122, N-[4-(N-Hydroxyamino)-2(R)-isobutylsuccinyl]-L-4'-guanidophenylalanine-N-methylamide 1 sulfate]",,27.1,38.6,,,,54.1,96.0 ± 32.6,,,35,31,22,,,,
"COC(=O)[C@H](Cc1ccc(CN)cc1)NC(=O)[C@H](CC(C)C)[C@H](CCCc1ccccc1)C(=O)NO.Cl [Compound No. 132, N-[4-(N-Hydroxyamino)-2(R)-isobutyl-3(S)-(3-phenylpropyl)succinyl]-L-4'-aminomethylphenylalanine methyl ester 1 hydrochloride]",,,,34.0,24.3,31.6,49.9,104.7 ± 30.6,,,46,20,39,,,,
"CNC(=O)[C@H](CCCCN)NC(=O)[C@H](CC(C)C)C(CCCc1ccc(C(=O)OC)cc1)C(=O)NO.Cl (single isomer, unassigned) [Compound No. 129, N-[4-(N-Hydroxyamino)-2(R)-isobutyl-3(R or S)-[3-(p-methoxycarbonylphenyl)propyl)succinyl]-L-lysine N-methylamide 1 hydrochloride]",39.9,125.7,109.1,37.7,30.2,35.1,31.1,144.0 ± 48.8,,,35,28,53,,,,
"CC(C)C[C@@H](C(=O)N[C@@H](Cc1ccc(CN)cc1)C(=O)O)C(CCCc1ccccc1)C(=O)NO.Cl (mixture of isomers) [Compound No. 114, N^a-[4-(N-Hydroxyamino)-2(R)-isobutyl-3(RS)-(3-phenylpropyl)succinyl]-L-4'-aminomethylphenylalanine · 1 hydrochloride]",,,,29.0,37.5,33.4,30.3,345.7 ± 47.1,,,52,71,62,70.0,39.4,69.4,54.0
